Read-outs that look alike come from different tables or passages of the source.
Target: T1, USP25 (USP25-His6, Boston Biochem E-546) (Homo sapiens, UniProt Q9UHP3)
T1 construct: His6 (C); purchased Boston Biochem E-546
T1 sequence (Q9UHP3 1-1055): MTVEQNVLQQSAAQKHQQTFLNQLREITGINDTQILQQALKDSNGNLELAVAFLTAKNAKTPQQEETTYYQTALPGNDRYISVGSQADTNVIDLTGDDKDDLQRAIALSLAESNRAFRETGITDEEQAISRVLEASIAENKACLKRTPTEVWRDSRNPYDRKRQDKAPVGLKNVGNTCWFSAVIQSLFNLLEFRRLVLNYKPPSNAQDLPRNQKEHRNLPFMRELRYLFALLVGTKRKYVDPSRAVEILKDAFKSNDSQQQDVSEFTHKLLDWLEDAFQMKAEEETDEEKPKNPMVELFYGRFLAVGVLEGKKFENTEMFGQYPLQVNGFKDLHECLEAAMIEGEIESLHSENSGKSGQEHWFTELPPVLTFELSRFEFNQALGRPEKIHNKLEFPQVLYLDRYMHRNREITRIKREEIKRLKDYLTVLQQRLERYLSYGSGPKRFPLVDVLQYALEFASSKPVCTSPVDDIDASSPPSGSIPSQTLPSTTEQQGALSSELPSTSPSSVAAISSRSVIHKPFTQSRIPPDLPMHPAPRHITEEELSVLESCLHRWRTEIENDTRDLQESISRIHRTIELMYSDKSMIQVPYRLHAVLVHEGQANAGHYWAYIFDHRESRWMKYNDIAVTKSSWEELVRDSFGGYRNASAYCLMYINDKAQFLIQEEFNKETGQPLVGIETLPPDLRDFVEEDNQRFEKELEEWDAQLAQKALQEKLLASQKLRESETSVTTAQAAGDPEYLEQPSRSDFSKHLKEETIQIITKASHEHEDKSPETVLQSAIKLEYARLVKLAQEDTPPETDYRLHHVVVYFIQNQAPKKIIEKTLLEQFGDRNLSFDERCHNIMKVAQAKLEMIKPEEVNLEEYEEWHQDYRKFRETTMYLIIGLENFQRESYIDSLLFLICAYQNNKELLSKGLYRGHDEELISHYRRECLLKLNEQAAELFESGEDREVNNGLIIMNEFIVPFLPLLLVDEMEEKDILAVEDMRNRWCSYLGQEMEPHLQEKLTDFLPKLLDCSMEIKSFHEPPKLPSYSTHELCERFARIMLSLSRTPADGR
Experiment: Ubiquitin-Rhodamine 110 Assay for USP25 Activity, Example A-3
Type: biochemical
Details: Ubiquitin-Rhodamine 110 assay, Example A-3
Method: Example A-3: Biochemical Assay: Ubiquitin-Rhodamine 110 Assay for USP25 Activity
The assay was performed in a final volume of 9 μL in assay buffer containing 20 mM Tris-HCl (pH 8.0, (1M Tris-HCl, pH 8.0 solution; Corning 46-031-CM)), 3 mM BME (2-Mercaptoethanol; Sigma 63689-25ML-F), 0.03% BGG (0.22 μM filtered, Sigma, G7516-25G), and 0.01% Triton X-100 (Sigma, T9284-10L). Nanoliter quantities of 10-point, 3-fold serial dilution in DMSO was pre-dispensed into 1536 assay plates (Corning, #3724BC) for a final test concentration of 25 μM to 1.3 nM, top to lowest dose, respectively. Enzyme USP25, construct USP25-His6, (Boston Biochem E-546). Concentration and incubation times were optimized for the maximal signal-to-background while maintaining initial velocity conditions at a fixed substrate concentration. The final concentration of the enzyme in the assay was […]. Final substrate (Ub-Rh110; Ubiquitin-Rhodamine 110, R&D Systems #U-555) concentration was 25 nM with [Ub-Rh110]<<Km. 3 μL of 2× enzyme was added to assay plates (pre-stamped with compound) preincubated with […] for 30 minutes and then 3 μL of 2× Ub-Rh110 was added to assay plates. Plates were incubated for 45 minutes at room temperature before addition of 3 μL of stop solution (final concentration of 10 mM citric acid (Sigma, 251275-500G)). Fluorescence was read on the Envision (Excitation at 485 nm and Emission at 535 nm; Perkin Elmer) or on the PheraSTAR (Excitation at 485 nm and Emission at 535 nm; BMG Labtech).
For assay formats Example A-1(a), A-1(b), and A-2, data were reported as percent inhibition compared with control wells based on the following equation: % inh=1−((FLU−AveLow)/(AveHigh−AveLow)) where FLU=measured Fluorescence, AveLow=average Fluorescence of no enzyme control (n=16), and AveHighh=average Fluorescence of DMSO control (n=16). IC50 values were determined by curve fitting of the standard 4 parameter logistic fitting algorithm included in the Activity Base software package: IDBS XE Designer Model 205. Data is fitted using the Levenburg Marquardt algorithm.

SMILES | IC50 (read-out: USP25 A-3 IC50 range) | other results
Cc1ccc2c(N)c(C(=O)N[C@H]3CCc4nc(N5CC[C@@]6(C5)OCC[C@H]6N)ccc4C3)sc2n1 [Example 405, 3-amino-N-[(6S)-2-[(4R,5S)-4-amino-1-oxa-7-azaspiro[4.4]nonan-7-yl]-5,6,7,8-tetrahydroquinolin-6-yl]-6-methylthieno[2,3-b]pyridine-2-carboxamide] | 200 to 2000 nM | 
CCn1ccc2cc(C(=O)N[C@H]3CCc4nc(N5C[C@@H](N)C6(COC6)C5)ccc4C3)cnc21 [Example 404, N-[(6S)-2-[(8S)-8-amino-2-oxa-6-azaspiro[3.4]octan-6-yl]-5,6,7,8-tetrahydroquinolin-6-yl]-1-ethyl-1H-pyrrolo[2,3-b]pyridine-5-carboxamide] | > 2000 nM | 
CO[C@@]12CCN[C@H]1CN(c1ccc3c(n1)CC[C@H](NC(=O)c1sc4nc(C)ccc4c1N)C3)C2 [Example 434, N-[(6S)-2-[(3aR,6aS)-3a-methoxy-octahydropyrrolo[2,3-c]pyrrol-5-yl]-5,6,7,8-tetrahydroquinolin-6-yl]-3-amino-6-methylthieno[2,3-b]pyridine-2-carboxamide] | > 2000 nM | 
Cc1ccc2c(N)c(C(=O)N[C@H]3COc4cc(N5CCNCC5)cc(F)c4C3)oc2n1 [Example 169, 3-amino-N-[(3R)-5-fluoro-7-(piperazin-1-yl)-3,4-dihydro-2H-1-benzopyran-3-yl]-6-methylfuro[2,3-b]pyridine-2-carboxamide] |  | IC50 (biochemical IC50 range, read-out: USP25 A-3): > 2000 nM
CN[C@@H]1CN(c2ccc3c(n2)CC[C@H](NC(=O)c2sc4nc(C)ccc4c2N)C3)C[C@H]1C(F)F [Example 377, 3-amino-N-[(6S)-2-[(3R,4S)-3-(difluoromethyl)-4-(methylamino)pyrrolidin-1-yl]-5,6,7,8-tetrahydroquinolin-6-yl]-6-methylthieno[2,3-b]pyridine-2-carboxamide] | > 2000 nM | 
COC[C@@]1(N)CCN(c2ccc3c(n2)CC[C@H](NC(=O)c2sc4nc(C)ccc4c2N)C3)C1 [Example 388, 3-amino-N-[(6S)-2-[(3R)-3-amino-3-(methoxymethyl)pyrrolidin-1-yl]-5,6,7,8-tetrahydroquinolin-6-yl]-6-methylthieno[2,3-b]pyridine-2-carboxamide] | 200 to 2000 nM | 
Cc1ccc2c(N)c(C(=O)N[C@H]3CCc4nc(N5C[C@H]6COC[C@@H](C5)[C@@H]6N)ccc4C3)sc2n1 [Example 397] | 200 to 2000 nM | 
CCn1ccc2cc(C(=O)N[C@H]3CCc4nc(N5C[C@@H](N)[C@H](C(F)(F)F)C5)ccc4C3)cnc21 [Example 422, N-[(6S)-2-[(3S,4R)-3-amino-4-(trifluoromethyl)pyrrolidin-1-yl]-5,6,7,8-tetrahydroquinolin-6-yl]-1-ethyl-1H-pyrrolo[2,3-b]pyridine-5-carboxamide] | > 2000 nM | 
CN[C@H]1CN(c2ccc3c(n2)CC[C@H](NC(=O)c2sc4nc(C)ccc4c2N)C3)C[C@@H]1C(F)F [Example 376, 3-amino-N-[(6S)-2-[(3S,4R)-3-(difluoromethyl)-4-(methylamino)pyrrolidin-1-yl]-5,6,7,8-tetrahydroquinolin-6-yl]-6-methylthieno[2,3-b]pyridine-2-carboxamide] | > 2000 nM | 
Cc1ccc2c(N)c(C(=O)N[C@H]3CCc4nc(N5CC6(C[C@@H](N)CO6)C5)ccc4C3)sc2n1 [Example 398, 3-amino-N-[(6S)-2-[(7R)-7-amino-5-oxa-2-azaspiro[3.4]octan-2-yl]-5,6,7,8-tetrahydroquinolin-6-yl]-6-methylthieno[2,3-b]pyridine-2-carboxamide] | 200 to 2000 nM | 
Cc1ccc2c(N)c(C(=O)N[C@H]3CCc4nc(N5C6CC(N)CC5CS(=O)(=O)C6)ccc4C3)sc2n1 (stereo partly drawn) [Example 429, 3-amino-N-[(6S)-2-{7-amino-3,3-dioxo-3λ-thia-9-azabicyclo[3.3.1]nonan-9-yl}-5,6,7,8-tetrahydroquinolin-6-yl]-6-methylthieno[2,3-b]pyridine-2-carboxamide] | 50 to 200 nM | 
CCn1ccc2cc(C(=O)N[C@H]3CCc4nc(N5C[C@H](N)[C@@H](C(F)(F)F)C5)ccc4C3)cnc21 [Example 421, N-[(6S)-2-[(3R,4S)-3-amino-4-(trifluoromethyl)pyrrolidin-1-yl]-5,6,7,8-tetrahydroquinolin-6-yl]-1-ethyl-1H-pyrrolo[2,3-b]pyridine-5-carboxamide] | 200 to 2000 nM | 
Cc1ccc2c(N)c(C(=O)N[C@H]3CCc4nc(N5CC[C@](N)(CO)C5)ccc4C3)sc2n1 [Example 386, 3-amino-N-[(6S)-2-[(3R)-3-amino-3-(hydroxymethyl)pyrrolidin-1-yl]-5,6,7,8-tetrahydroquinolin-6-yl]-6-methylthieno[2,3-b]pyridine-2-carboxamide] | 200 to 2000 nM | 
Cc1ccc2c(N)c(C(=O)N[C@@H]3CCc4nc(N5C[C@@H](N)[C@H](C(F)F)C5)ncc4C3)sc2n1 [Example 382, 3-amino-N-[(6R)-2-[(3S,4R)-3-amino-4-(difluoromethyl)pyrrolidin-1-yl]-5,6,7,8-tetrahydroquinazolin-6-yl]-6-methylthieno[2,3-b]pyridine-2-carboxamide] | > 2000 nM | 
Cc1ccc2c(N)c(C(=O)N[C@H]3COc4cc(N5CC[C@@H]6CCC(N)C[C@@H]65)ccc4C3)sc2n1 (stereo in doubt) [Example 234, N-[(3R)-7-[(3aS,6S,7aS)-6-amino-octahydro-1H-indol-1-yl]-3,4-dihydro-2H-1-benzopyran-3-yl]-3-amino-6-methylthieno[2,3-b]pyridine-2-carboxamide] |  | IC50 (IC50 ranges, read-out: USP25 A-3 IC50): 50 to 200 nM
Cc1ccc2c(N)c(C(=O)N[C@H]3CCc4nc(N5C[C@H](C(F)F)[C@@H](N)C5)ncc4C3)sc2n1 [Example 380, 3-amino-N-[(6S)-2-[(3R,4S)-3-amino-4-(difluoromethyl)pyrrolidin-1-yl]-5,6,7,8-tetrahydroquinazolin-6-yl]-6-methylthieno[2,3-b]pyridine-2-carboxamide] | > 2000 nM | 
Cc1ccc2c(N)c(C(=O)N[C@H]3CCc4nc(N5CC[C@@](N)(CO)C5)ccc4C3)sc2n1 [Example 387, 3-amino-N-[(6S)-2-[(3S)-3-amino-3-(hydroxymethyl)pyrrolidin-1-yl]-5,6,7,8-tetrahydroquinolin-6-yl]-6-methylthieno[2,3-b]pyridine-2-carboxamide] | > 2000 nM | 
Cc1ccc2c(N)c(C(=O)N[C@@H]3COc4cc(N5C[C@@H]6CNC[C@H]6C5)ccc4C3)sc2n1 [Example 42, 3-amino-N-((S)-7-((3aS,6aS)-hexahydropyrrolo[3,4-c]pyrrol-2(1H)-yl)chroman-3-yl)-6-methylthieno[2,3-b]pyridine-2-carboxamide] | 200 to 2000 nM | 
Cc1ccc2c(N)c(C(=O)N[C@H]3CCc4nc(N5C[C@@H](CF)[C@H](N)C5)ccc4C3)sc2n1 [Example 385, 3-amino-N-[(6S)-2-[(3S,4R)-3-amino-4-(fluoromethyl)pyrrolidin-1-yl]-5,6,7,8-tetrahydroquinolin-6-yl]-6-methylthieno[2,3-b]pyridine-2-carboxamide] | > 2000 nM | 

Source: patent publication US12162888B2, “Carboxamides as ubiquitin-specific protease inhibitors” (Valo Early Discovery, Inc., priority 2018, dated 2024)
